Entries after “also recorded” stand apart in the source; their conditions may differ.
Legend:
Caco-2 cells = test: MTT assay, non-toxic dose range; assay type: cell-based, human; settings: 4 h, positive control
Description: The Caco-2 cells were seeded into 96-well plates as they were in logarithmic growth phase. Each well was added with 100 μL of the cell suspension (8.0 × 10^3 cells/mL) and incubated in 5% CO2 and constant temperature (37 °C) and humidity in the incubator. […] The cells were incubated under the same conditions for 4 h; then, 100 μL of 3-(4,5-dimethylthiazolzyl)-2,5-diphenyl tetrazolium bromide (MTT, Amresco, Radnor, PA) solution at the concentration of 0.5 mg/mL took the place of HBSS. After the cells were incubated under the same conditions for 4 h, the supernatant was replaced by 150 μL of dimethyl sulphoxide (DMSO, Sigma Chemical Co., Deisenhofen, Germany); then, the cells were shaken for 10 min. The absorption of the samples was measured on a microplate reader (BioTek Instruments, Inc., Winooski, VT) at the wavelength of 570 nm.
The following formula was used to calculate the cell survival rate=A/A0×100%, wherein, A represented the average absorbance value of the experiment groups, and A0 represented the average absorbance value of the control group.

[1] = Transport experiment with Caco-2 cell monolayers; settings: human, Caco-2, Papp, Caco-2 cell monolayers; for Papp at 180 min, 10 mg/mL: extract 10 mg/mL; for Papp at 180 min, 20 mg/mL: extract 20 mg/mL; for Papp at 180 min, 30 mg/mL: extract 30 mg/mL
Description: (§1) The Caco-2 cells were cultured in the culture medium consisting of Dulbecco’s Modified Eagle Medium (DMEM, Gibco Inc., Grand Island, CA)-fetal bovine serum (FBS, Gibco Inc., Grand Island, CA)-nonessential amino acids (NEAA, Corning Costar, Cambridge, MA)-‘penicillin-streptomycin’ (Corning Costar, Cambridge, MA) (100:10:1:1, v/v/v/v) in 25 cm^2 flasks, which were incubated in 5% CO2 and constant temperature (37 °C) and humidity in the incubator. The culture medium was replaced every 2 or 3 days, and the cells were split 1:2 or 1:3 to conduct passage when they reached 80% confluence.
(§2) About 1.5 mL of the culture medium was added into the basal (BL) side of each well of the 12-well Transwell plates (insert diameter 12 mm, pore size 3.0 μm, membrane growth area 1.12 cm^2, Corning Costar, Cambridge, MA), and 0.5 mL of the Caco-2 cell suspension at the density of 2.0 × 10^5 cells/mL was seeded into the apical (AP) side of each insert. The cells were incubated in 5% CO2 and constant temperature (37 °C) and humidity in the incubator. The culture medium in both AP and BL sides was replaced every other day in the first week, then that in AP side was replaced every day and that in BL side was replaced every other day. The cells would differentiate and form a confluent monolayer. The integrity and viability of the cell monolayers were evaluated by measuring transepithelial electrical resistance (TEER) values in the culture medium at 37 °C using a Millicell®-ERS system (Millipore Corp., Bedford, MA), and only the inserts with the TEER above 600 Ω/cm^2 on day 21 were selected to perform the transport experiment.
(§3) About 200 μL of the solution in the receiving chambers was collected at 30, 60, 90, 120, 150, and 180 min, respectively, and then the same volume of HBSS was added. All samples were stored at −20 °C and filtered through a 0.45 μm membrane filter for HPLC analysis.
(§4) The HPLC conditions used for the analysis of the intestinal bacterial transformed AEOF before and after transport experiment was the same as above.
(§5) The transport percentage (%) was calculated using the formula transport percentage (%) = dQ/(C0 × V) × 100, wherein, V (mL) represented the volume of the donor compartment.

Caco-2 cell monolayers = test: Transport experiment with Caco-2 cell monolayers; settings: for transport percentage: Caco-2 cell monolayers; for After transported with Caco-2 cell monolayers: intestinal bacterial transformed AEOF
Description: as §1, §2, §3, §4, §5

[2] = previous study, ref Liu et al. [2014]; Wu et al. [2014]; cited from earlier work
[3] = test system: activated intestinal bacteria; test: Intestinal bacterial transformation of AEOF; assay type: in vitro ADME, human; settings: for After transformed by intestinal bacteria / Before transformed by intestinal bacteria: content in the extract; for transformation by intestinal bacteria (in words): in AEOF 15.0, 30.0, 60.0 mg/mL, up to 72 h, single person derived- or multiple people-derived intestinal bacteria
Description: Each 3 g of fresh feces from 3 healthy men and 3 healthy women of 23–25 years old was suspended in 200 mL of general anaerobic medium (GAM, including L-cystine hydrochloride, soluble starch, pepsin, tryptone, peptone, soy peptone, serum powder, yeast extract, beef extract, and beef liver extract powder purchased from Beijing Aoboxing Biotechnology Co., Ltd, Beijing, China) broth prepared as per a literature (Yang & Xu [2011]), respectively, and cultured in an anaerobic incubator (Shanghai Cimomedical Appliance Co., Ltd., Shanghai, China) at 37 °C for 24 h (Tsuchihashi et al. [2009]). […] Each 100 μL of the activated intestinal bacteria from the 6 volunteers were added into 11.4 mL of GAM, mixed adequately, and incubated in the same conditions as previously to obtain the mixture of activated intestinal bacteria. About 0.4513, 0.9026, and 1.8052 g of AEOF were dissolved in 30 mL of GAM on a super clean bench (Beijing Great Wall Air Purification Co. Ltd., Beijing, China), respectively, to generate the experimental groups. Then, the triplicate GAM containing AEOF was divided into 24 screw-cap test tubes, and each screw-cap test tube had 3 mL of the GAM and 100 μL of the activated intestinal bacteria and the mixture of activated intestinal bacteria, respectively. They were incubated under the same condition, and the test tubes of each concentration in triplicate were removed from the anaerobic incubator at 0, 2, 4, 6, 12, 24, 48, and 72 h. About 100 μL of the bacterial suspension was replaced with GAM to obtain the control group. The GAM absent of the AEOF was used as the blank group. […] About 300 μL of the supernatant was collected, filtered through a 0.45 μm membrane filter, and stored at −20 °C before HPLC analysis.
The HPLC analysis was performed using a Waters 1500 series (Waters Business Operations, Milford, MA) equipped with a 1525 binary HPLC pump, an on-line degasser, a manual injector and a 2489 UV/Visible detector. […] The temperature was set at 35 °C and the UV detecting wavelengths were 254 and 365 nm. The mobile phase consisted of acetonitrile (HPLC grade, Fisher Co., Pittsburgh, PA) (A) and 1.0% acetic acid (Beijing Chemical Works, Beijing, China) in purified water (v/v) (B), and the gradient elution program was as follows: 5–10% A (0–5 min), 10–20% A (5–10 min), 20–25% A (10–22 min), 25–40% A (22–35 min), 40–50% A (35–40 min), and 50–5% A (40–42 min) at a flow rate of 1.0 mL/min. The volume injected was 5 μL.

[4] = Absorption experiment with everted gut sacs; settings: Sprague-Dawley, rat
[5] = test system: everted gut sacs (jejunum); test: Absorption experiment with everted gut sacs; settings: for transport percentage: Everted gut sacs, AP→BL; for After transported with everted gut sacs: intestinal bacterial transformed AEOF
[6] = first of three lines per compound (lowest concentration; 10, 20, 30 mg/mL)
[7] = second of three lines per compound (middle concentration, not given)
[8] = third of three lines per compound (highest concentration, not given)
[9] = first of three lines per compound (lowest extract concentration)
[10] = first of three lines per compound (lowest extract concentration; AEOF 15, 30, 60 mg/mL)
[11] = second of three lines per compound (middle extract concentration, not given)
[12] = third of three lines per compound (highest extract concentration, not given)

| Structure (SMILES) | Papp at 180 min, 10 mg/mL ([1]; AP→BL) [×10⁻⁶ cm/s] | Papp at 180 min, 10 mg/mL ([1]; BL→AP) [×10⁻⁶ cm/s] | Papp at 180 min, 20 mg/mL ([1]; AP→BL) [×10⁻⁶ cm/s] | Papp at 180 min, 20 mg/mL ([1]; BL→AP) [×10⁻⁶ cm/s] | Papp at 180 min, 30 mg/mL ([1]; AP→BL) [×10⁻⁶ cm/s] | Papp at 180 min, 30 mg/mL ([1]; BL→AP) [×10⁻⁶ cm/s] | transport percentage (Caco-2 cell monolayers; extract 10 mg/mL, AP→BL) [%] | transport percentage (Caco-2 cell monolayers; extract 10 mg/mL, BL→AP) [%] | transport percentage (Caco-2 cell monolayers; extract 20 mg/mL, AP→BL) [%] | transport percentage (Caco-2 cell monolayers; extract 20 mg/mL, BL→AP) [%] | transport percentage (Caco-2 cell monolayers; extract 30 mg/mL, AP→BL) [%] | transport percentage (Caco-2 cell monolayers; extract 30 mg/mL, BL→AP) [%] | After transported with Caco-2 cell monolayers (Caco-2 cell monolayers; [6]) [µg/mL] | After transported with Caco-2 cell monolayers (Caco-2 cell monolayers; [7]) [µg/mL] | After transported with Caco-2 cell monolayers (Caco-2 cell monolayers; [8]) [µg/mL] | absorption mechanism [2] | After transformed by intestinal bacteria [3, 9] [µg/mL] | Before transformed by intestinal bacteria [3, 10] [µg/mL] | After transformed by intestinal bacteria [3, 11] [µg/mL] | Before transformed by intestinal bacteria [3, 11] [µg/mL] | other results |
| --- | --- | --- | --- | --- | --- | --- | --- | --- | --- | --- | --- | --- | --- | --- | --- | --- | --- | --- | --- | --- | --- |
| CC(=O)O[C@H]1C(=O)[C@@]2(C)[C@H]([C@H](OC(=O)c3ccccc3)[C@]3(O)C[C@H](OC(=O)[C@H](O)[C@@H](NC(=O)c4ccccc4)c4ccccc4)C(C)=C1C3(C)C)[C@]1(OC(C)=O)CO[C@@H]1C[C@@H]2O [paclitaxel] |  |  |  |  |  |  |  |  |  |  |  |  |  |  |  |  |  |  |  |  | survival rate of the Caco-2 cells (Caco-2 cells; 0.02 mg/L): 67.3%; survival rate of the Caco-2 cells (Caco-2 cells; 0.04 mg/L): 45.5%; survival rate of the Caco-2 cells (Caco-2 cells; 0.08 mg/L): 37.4% |
| O=C1CC[C@H]2c3cc(O)c(O)cc3CCN12 [trolline] | 112 ± 7 | 231 ± 7 | 127 ± 12 | 194 ± 2 | 107 ± 6 | 184 ± 11 | 135.43 | 93.13 | 153.03 | 78.21 | 130.00 | 74.30 | 8.10 | 13.59 | 19.15 | an associative mechanism including both active and passive transports | 22.37 | 22.80 | 36.28 | 35.96 | After transformed by intestinal bacteria [3, 12]: 71.00 µg/mL; Before transformed by intestinal bacteria [3, 12]: 73.23 µg/mL; transformation by intestinal bacteria (in words) [3]: not transformed; also recorded: not changed; Papp at 180 min, 10 mg/mL [4]: 138 ± 1 ×10⁻⁶ cm/s; Papp at 180 min, 20 mg/mL [4]: 107 ± 5 ×10⁻⁶ cm/s; Papp at 180 min, 30 mg/mL [4]: 151 ± 4 ×10⁻⁶ cm/s; transport percentage ([5]; extract 10 mg/mL): 29.42%; transport percentage ([5]; extract 20 mg/mL): 20.32%; transport percentage ([5]; extract 30 mg/mL): 30.00%; After transported with everted gut sacs [5, 6]: 4.33 µg/mL; After transported with everted gut sacs [5, 7]: 6.97 µg/mL; After transported with everted gut sacs [5, 8]: 14.76 µg/mL |
| COc1ccc(C(=O)O)cc1OC [veratric acid] | 104 ± 5 | 236 ± 5 | 105 ± 15 | 210 ± 4 | 109 ± 4 | 199 ± 4 | 109.67 | 95.04 | 127.58 | 84.75 | 131.58 | 80.33 | 0.92 | 1.62 | 2.79 | mainly through passive diffusion | 3.22 | 2.81 | 7.44 | 6.10 | After transformed by intestinal bacteria [3, 12]: 12.78 µg/mL; Before transformed by intestinal bacteria [3, 12]: 13.39 µg/mL; transformation by intestinal bacteria (in words) [3]: not transformed; also recorded: not changed; Papp at 180 min, 10 mg/mL [4]: 127 ± 4 ×10⁻⁶ cm/s; Papp at 180 min, 20 mg/mL [4]: 111 ± 7 ×10⁻⁶ cm/s; Papp at 180 min, 30 mg/mL [4]: 142 ± 3 ×10⁻⁶ cm/s; transport percentage ([5]; extract 10 mg/mL): 27.04%; transport percentage ([5]; extract 20 mg/mL): 21.02%; transport percentage ([5]; extract 30 mg/mL): 28.12%; After transported with everted gut sacs [5, 6]: 0.59 µg/mL; After transported with everted gut sacs [5, 7]: 1.64 µg/mL; After transported with everted gut sacs [5, 8]: 2.02 µg/mL |
| COc1cc(C(=O)O)cc(CC=C(C)C)c1O [proglobeflowery acid] | 105 ± 4 | 223 ± 16 | 123 ± 26 | 142 ± 5 | 181 ± 22 | 105 ± 4 | 127.39 | 89.93 | 148.57 | 57.32 | 219.09 | 42.47 | 11.11 | 17.18 | 23.46 | mainly through passive diffusion | 32.40 | 2.55 | 67.09 | 4.78 | After transformed by intestinal bacteria [3, 12]: 134.85 µg/mL; Before transformed by intestinal bacteria [3, 12]: 6.67 µg/mL; transformation by intestinal bacteria (in words) [3]: not transformed; also recorded: not changed; Papp at 180 min, 10 mg/mL [4]: 450 ± 11 ×10⁻⁶ cm/s; Papp at 180 min, 20 mg/mL [4]: 534 ± 14 ×10⁻⁶ cm/s; Papp at 180 min, 30 mg/mL [4]: 586 ± 8 ×10⁻⁶ cm/s; transport percentage ([5]; extract 10 mg/mL): 9.60%; transport percentage ([5]; extract 20 mg/mL): 10.58%; transport percentage ([5]; extract 30 mg/mL): 11.61%; After transported with everted gut sacs [5, 6]: 1.95 µg/mL; After transported with everted gut sacs [5, 7]: 4.95 µg/mL; After transported with everted gut sacs [5, 8]: 7.74 µg/mL |

Source: article PMC6130518, “Investigation of the effective components of the flowers of Trollius chinensis from the perspectives of intestinal bacterial transformation and intestinal absorption” (Pharmaceutical Biology, 2017)
